From patent US10676436B2, “NLRX1 ligands” (Landos Biopharma, Inc., priority 2018, dated 2020)

Target: T1, Human NLRX1 (NLRX1-WT) (Homo sapiens, UniProt Q86UT6)
T1 construct: made in house; host or cells: Pichia pastoris
Experiment: Surface plasmon resonance binding to NLRX1-WT
Method: NLRX1 production and purification. Human NLRX1 (www.uniprot.org; UniProtKB—Q86UT6 (NLRX1 HUMAN)) was cloned into E. coli, amplified and transfected in Pichia pastoris. P. pastoris was plated onto adenine selective media. Stable transfected colonies were selected and grown within YPD broth at 30° C. for 24 hours, 240 RPM shaking. Starter culture was used to inoculate base media (1% yeast extract, 2% peptone, 1% sorbitol, 2% yeast nitrogen base) containing biotin and buffered with potassium phosphate. Inoculated base media was incubated for 48 hours at 30° C., 240 RPM. P. pastoris was then pelleted by centrifugation and resuspended in expression media (1% sorbitol, 2% yeast nitrogen base) containing biotin and buffered with potassium phosphate. Culture was induced daily for protein production through addition of methanol and incubated for a total of 4 days at 28° C., 240 RPM. After incubation, cells were pelleted by centrifugation and lysed by sonication. Recombinant NLRX1 protein was purified by fast protein liquid chromatography (AktaPrime) using immobilized metal affinity chromatography. Fractions of protein were eluted in 1 mL aliquots and evaluated for NLRX1 content. A mutated NLRX1 protein was generated using similar methods to disrupt binding within the predicted binding site through altering four residues to alanine (D677A, F680A, F681A, and E684A).
A Biacore T200 was used to evaluate binding to the NLRX1 protein. NLRX1-WT and NLRX1-Mutant were used as proteins to immobilize onto the CM5 sensor chip. NLRX1-WT was diluted in 10 mM sodium acetate buffer at pH 4.0 and immobilized onto the flow cell to a level of ˜3700 RU, using standard amine coupling chemistry. NLRX1-Mutant was diluted in 10 mM sodium acetate buffer at pH 4.0 and immobilized onto the flow cell to a level of ˜3100 RU, using standard amine coupling chemistry. 20 mM MOPS, 150 mM NaCl, 5 mM sodium acetate, 1 mM EDTA, 0.05% Tween-20, pH 8.0 buffer (Running buffer) was used as the immobilization running buffer. Based on the immobilized response values, theoretical Rmax values were calculated. The Rmax values assume 1:1 interaction mechanism. Overnight kinetics were performed for all analytes binding to the immobilized proteins. The kinetics experiments were performed in the μL/min. presence of running buffer+1% DMSO. The flow rate of all solutions was maintained at 50 Analyte concentrations were 0 μM, 2.5 μM, 5 μM 10 μM 20 μM and 40 μM.

T1 sequence (Q86UT6 87-975): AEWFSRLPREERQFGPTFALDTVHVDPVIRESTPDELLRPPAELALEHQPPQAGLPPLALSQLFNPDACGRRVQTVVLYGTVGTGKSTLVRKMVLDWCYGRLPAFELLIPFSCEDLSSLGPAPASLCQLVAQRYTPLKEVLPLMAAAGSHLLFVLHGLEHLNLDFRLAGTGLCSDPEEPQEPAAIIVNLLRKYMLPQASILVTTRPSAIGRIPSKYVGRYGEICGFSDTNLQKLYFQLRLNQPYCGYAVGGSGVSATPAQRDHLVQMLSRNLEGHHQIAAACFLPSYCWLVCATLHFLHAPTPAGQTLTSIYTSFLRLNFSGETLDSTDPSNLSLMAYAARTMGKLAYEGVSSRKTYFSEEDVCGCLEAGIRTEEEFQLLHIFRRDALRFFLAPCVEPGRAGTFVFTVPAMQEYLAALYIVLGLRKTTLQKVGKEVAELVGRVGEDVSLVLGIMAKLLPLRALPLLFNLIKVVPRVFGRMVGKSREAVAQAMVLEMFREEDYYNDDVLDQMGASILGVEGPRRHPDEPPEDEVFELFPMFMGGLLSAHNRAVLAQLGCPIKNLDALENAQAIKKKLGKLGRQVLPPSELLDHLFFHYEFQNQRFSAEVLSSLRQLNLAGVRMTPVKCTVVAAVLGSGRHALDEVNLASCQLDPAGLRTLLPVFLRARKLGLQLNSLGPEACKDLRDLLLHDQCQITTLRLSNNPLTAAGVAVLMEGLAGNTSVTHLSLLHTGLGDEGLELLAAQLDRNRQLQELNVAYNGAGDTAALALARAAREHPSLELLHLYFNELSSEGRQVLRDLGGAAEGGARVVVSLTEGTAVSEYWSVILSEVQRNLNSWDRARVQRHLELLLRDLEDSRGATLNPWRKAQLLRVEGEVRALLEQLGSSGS

Question: Which “binding to NLRX1 by surface plasmon resonance (in words)” value does the source give for `Cc1cccc(Oc2cc(Oc3cccc(C)n3)cc(Oc3cccc(C)n3)c2)n1` [NX-13, 1,3,5-tris (6-methylpyridin-2-yloxy) benzene] here?
Answer: bind to NLRX1

Question: What about the Kd (1:1 binding model fitting, read-out: steady state dissociation constant KD) of the same molecule?
Answer: 30.2 µM
